Assay results: patent US20260297035A1, “PROTEIN KINASE INHIBITORS AND USES THEREOF” (DELiver Therapeutics, Inc., priority 2023, published 2026)
Where a name gives a salt, the structure may show the parent alone.

How the values were obtained:
[1] = tested on: IMR90 fibroblasts; assay: Relative viability (CellTiterGlo) of senescent IMR90 fibroblasts; assay type: cell-based, human; conditions: at IL-6 reducing concentrations
Procedure: (§1) In the assay, IMR90 fibroblasts were plated at a density of 3E6 cells in a T175 tissue culture (TC)-treated flask. The flasks were placed into a tissue culture incubator and cells were allowed to adhere to the bottom of the wells for 24 hours. After cell adherence, the TC-treated flasks containing the cells were placed into a MultiRad225 X-ray irradiator, where cells were exposed to 10 grays (Gy) of ionizing […] irradiation. After irradiation, flasks were returned to the tissue culture incubator for 7 days, refreshing the cell media every 3 days.
(§2) After the 7-day incubation period that allowed full senescence transformation, cells were detached from the TC-treated flasks using 0.25% trypsin-EDTA solution. Cells were then split, and two experiments were conducted simultaneously: (1) verification of senescence induction via β-galactosidase staining (a senescent cell marker) and (2) analysis of senomorphic activity of compounds.
(§3) Cells also were measured for relative viability to generate cytotoxicity curves associated with the varying concentrations of compounds. […] LD50 values were measured by normalizing luminescence intensity to the lowest drug concentration. GraphPad Prism was used to plot and calculate LD50 values from the cytotoxic kill curves. Curves were fit to a non-linear regression model, with compound concentration vs. response and variable slope (four parameters).

[2] = as above; assay type: cell-based, human; conditions: human, senescent imr90 fibroblasts
Procedure: as §1, §2, §3

[3] = tested on: IMR90 fibroblasts, IL-6; assay: Senomorphic activity: IL-6 reduction (ELISA) in senescent IMR90 fibroblasts; assay type: cell-based, human; conditions: for IL-6 reduction potency compared with pacritinib: compared with control drug pacritinib
Procedure: Senomorphic activity of compounds were assessed by determining whether the compounds could inhibit the senescence-associated secretory phenotype (SASP) in senescent cells, which is associated with overproduction and secretion of pro-inflammatory factors. Although many of these factors are associated primarily with macrophages and monocytes, they can also be made by a variety of senescent and activated cell types, such as fibroblasts. Specifically, IMR90 fibroblasts are known to overproduce these factors, especially when rendered senescent.
as §1, §2
For verification of senescence induction, 2.5E4 cells were plated in TC-treated 6-well plates. After overnight adherence to the TC-plates, cells were fixed and stained for β-galactosidase accumulation following the manufacturer's standard protocol (e.g., Millipore Sigma, Senescence Cells Histochemical Staining Kit, CS0030-1KT). Brightfield microscopy was used to image the cells and ImageJ software was used to calculate the percentage of senescent cells per well. Non-irradiated IM90 fibroblasts were used as a non-senescent control.
To test the senomorphic activity of compounds, 1E4 cells were plated in 96-well plates. After overnight adherence to the 96-well plates, compounds were added in half-log dilutions to the wells containing the cells. Compounds that were effective inhibitors of JAK2 and were not effective inhibitors of JAK1 were assayed (JAK2 selective inhibitors). Twenty-four hours after compounds were added, cell culture media was collected and analyzed by various enzyme linked immunosorbent assays (ELISAs) for the expression of SASP-associated cytokines, including IL-6, TGF-beta, and TNF-alpha. The manufacturer's protocol was followed for ELISA analysis (e.g., Abcam, Human IL-6 ELISA kit, ab178013). Cytokine levels were compared to untreated controls and reduction of cytokine production was plotted and calculated using GraphPad Prism analysis software.

[4] = tested on: JAK2; conditions: cited from earlier work
[5] = tested on: RET; conditions: cited from earlier work
[6] = tested on: TNK2 (ACK); conditions: control inhibitor; Tracer 236 at 30 nM; cited from earlier work
[7] = tested on: RET-V804E; conditions: cited from earlier work
[8] = tested on: TXK; conditions: cited from earlier work
[9] = tested on: ABL1 F317L; conditions: cited from earlier work
[10] = tested on: RET-V804M; conditions: control inhibitor; Tracer 236 at 5 nM; cited from earlier work
[11] = tested on: EPHA5; conditions: cited from earlier work
[12] = tested on: RET-M918T; conditions: control inhibitor; Tracer 236 at 10 nM; cited from earlier work
[13] = tested on: EPHA1; conditions: cited from earlier work
[14] = tested on: EPHB2; conditions: cited from earlier work
[15] = tested on: PTK2B (FAK2); conditions: cited from earlier work
[16] = tested on: ROS1; conditions: cited from earlier work
[17] = tested on: SRC; conditions: cited from earlier work
[18] = tested on: RET-S891A; conditions: role: cofactor; peptide substrate Tyr 06; read-out: ATP Km app; cited from earlier work
[19] = tested on: NTRK3 (TRKC); conditions: role: cofactor; peptide substrate Tyr 01; read-out: ATP Km app; cited from earlier work
[20] = tested on: RET-Y791F; conditions: role: cofactor; peptide substrate Tyr 02; read-out: ATP Km app; cited from earlier work
[21] = tested on: JAK2; conditions: role: cofactor; peptide substrate Tyr 06; read-out: ATP Km app; cited from earlier work
[22] = tested on: NTRK1 (TRKA); conditions: role: cofactor; peptide substrate Tyr 01; read-out: ATP Km app; cited from earlier work
[23] = tested on: AURKB (Aurora B); conditions: role: cofactor; peptide substrate Ser/Thr 01; read-out: ATP Km app; cited from earlier work
[24] = tested on: LCK; conditions: cited from earlier work
[25] = tested on: ABL1 E255K; conditions: role: cofactor; peptide substrate Tyr 02; read-out: ATP Km app; cited from earlier work
[26] = tested on: ABL1 Y253F; conditions: role: cofactor; peptide substrate Tyr 02; read-out: ATP Km app; cited from earlier work
[27] = tested on: TNK1; conditions: role: cofactor; peptide substrate Ser/Thr 13; read-out: ATP Km app; cited from earlier work
[28] = tested on: AURKA (Aurora A); conditions: role: cofactor; peptide substrate Ser/Thr 01; read-out: ATP Km app; cited from earlier work
[29] = tested on: TYK2; conditions: role: cofactor; peptide substrate Tyr 03; read-out: ATP Km app; cited from earlier work
[30] = tested on: BTK; conditions: cited from earlier work
[31] = tested on: EPHA8; conditions: role: cofactor; peptide substrate Tyr 02; read-out: ATP Km app; cited from earlier work
[32] = tested on: EPHB1; conditions: role: cofactor; peptide substrate Tyr 02; read-out: ATP Km app; cited from earlier work
[33] = tested on: ABL1 G250E; conditions: role: cofactor; peptide substrate Tyr 02; read-out: ATP Km app; cited from earlier work
[34] = tested on: AURKC (Aurora C); conditions: role: cofactor; peptide substrate Ser/Thr 19; read-out: ATP Km app; cited from earlier work
[35] = tested on: ABL1 F317I; conditions: role: cofactor; peptide substrate Tyr 02; read-out: ATP Km app; cited from earlier work
[36] = tested on: ABL2 (Arg); conditions: cited from earlier work
[37] = tested on: EPHA2; conditions: role: cofactor; peptide substrate Tyr 01; read-out: ATP Km app; cited from earlier work
[38] = tested on: NTRK2 (TRKB); conditions: role: cofactor; peptide substrate Tyr 01; read-out: ATP Km app; cited from earlier work
[39] = tested on: RET-A883F; conditions: role: cofactor; peptide substrate Tyr 04; read-out: ATP Km app; cited from earlier work
[40] = tested on: JAK3; conditions: role: cofactor; peptide substrate Tyr 06; read-out: ATP Km app; cited from earlier work
[41] = tested on: BMX; conditions: role: cofactor; peptide substrate Tyr 01; read-out: ATP Km app; cited from earlier work
[42] = tested on: RET-V804L; conditions: role: cofactor; peptide substrate Tyr 02; read-out: ATP Km app; cited from earlier work
[43] = tested on: ITK; conditions: role: cofactor; peptide substrate Tyr 01; read-out: ATP Km app; cited from earlier work
[44] = tested on: SRC-N1; conditions: cited from earlier work
[45] = target: T1, ABL1 T315I (Homo sapiens, UniProt P00519, T315I); conditions: role: cofactor; peptide substrate Tyr 02; read-out: ATP Km app; cited from earlier work
T1 construct: The ABL1 variant polypeptides utilized contained the same polypeptide as the “isoahABL1(wt)” polypeptide except that each contained one corresponding amino acid substitution

[46] = tested on: JAK1; conditions: role: cofactor; peptide substrate Tyr 06; read-out: ATP Km app; cited from earlier work
[47] = target: ABL1(wt) (Homo sapiens, UniProt P00519); conditions: cited from earlier work
[48] = tested on: DDR2-T654M; conditions: control inhibitor; Tracer 178 at 100 nM; cited from earlier work
[49] = tested on: TEC; conditions: control inhibitor; Tracer 178 at 1 nM; cited from earlier work
[50] = control inhibitor, Tyr 02, ATP 10 μM
[51] = control inhibitor, Tyr02, ATP 25 uM
[52] = role: cofactor, peptide substrate Tyr 02, read-out: ATP Km app
[53] = role: cofactor, peptide substrate Tyr 01, read-out: ATP Km app
[54] = control inhibitor, Tyr 02, ATP 50 uM

Structure (SMILES): C=CC(=O)Nc1cc(Nc2ncc3cccc(-c4ccc(F)cc4OC(C)C)c3n2)ccc1C [Cmpd53, N-(5-((8-(4-fluoro-2-isopropoxyphenyl)quinazolin-2-yl)amino)-2-methylphenyl)acrylamide]
- cell toxicity (in words) [1]: without cell toxicity
- viability ([2]; at 0.8 nM and 800 nM): 100%
- IL-6 reduction (in words) [3]: potent IL-6 reduction at sub-toxic drug levels
- inhibition at 0.0008 µM ([3]; Homo sapiens, IMR-90, 0.8 nM, 24 hours, read-out: IL-6 production reduction): 82.2%
- inhibition at 0.8 µM ([3]; Homo sapiens, IMR-90, 800 nM, 24 hours, read-out: IL-6 production reduction): 82.9%
- IL-6 reduction potency compared with pacritinib [3]: more potent than the control drug pacritinib

Structure (SMILES): Cc1ccc(Nc2ncc3cccc(-c4ccc(F)cc4OC(C)C)c3n2)cc1N [Cmpd51, N1-(8-(4-fluoro-2-isopropoxyphenyl)quinazolin-2-yl)-4-methylbenzene-1,3-diamine hydrochloride]
- cell toxicity (in words) [1]: without cell toxicity
- viability ([2]; at 0.4 nM and 1250 nM): 100%
- IL-6 reduction (in words) [3]: potent IL-6 reduction at sub-toxic drug levels
- inhibition at 0.0004 µM ([3]; Homo sapiens, IMR-90, 0.4 nM, 24 hours, read-out: IL-6 production reduction): 67.5%
- inhibition at 1.25 µM ([3]; Homo sapiens, IMR-90, 1250 nM, 24 hours, read-out: IL-6 production reduction): 71.6%
- IL-6 reduction potency compared with pacritinib [3]: more potent than the control drug pacritinib

Structure (SMILES): N#CC[C@H](C1CCCC1)n1cc(-c2ncnc3[nH]ccc23)cn1 [ruxolitinib]
- JAK2 selectivity [4]: not selective inhibitors of JAK2 PK

Structure (SMILES): CN[C@@H]1C[C@H]2O[C@@](C)([C@@H]1OC)n1c3ccccc3c3c4c(c5c6ccccc6n2c5c31)C(=O)NC4 [Staurosporine]
- IC50 ([7]; control inhibitor, Tyr 04, ATP 50 uM): 2.29 nM
- IC50 [9, 50]: 214 nM
- IC50 [10]: 1.02 nM
- IC50 [12]: 3.8 nM
- IC50 ([15]; control inhibitor, Tyr 01, ATP 5 uM): 12 nM

Structure (SMILES): Nc1ncnc2c1ncn2[C@@H]1O[C@H](COP(=O)(O)OP(=O)(O)OP(=O)(O)O)[C@@H](O)[C@H]1O [ATP]
- Km [17, 52]: 50 µM
- Km [5, 52]: 11 µM
- Km [18]: 8 µM
- Km [19]: 54 µM
- Km [20]: 12 µM
- Km [21]: 31 µM
- Km [22]: 425 µM
- Km [23]: 81 µM
- Km [24, 52]: 45 µM
- Km ([7]; role: cofactor, peptide substrate Tyr 04, read-out: ATP Km app): 50 µM
- Km [25]: 4.2 µM
- Km [26]: 11.8 µM
- Km [27]: 237 µM
- Km [28]: 10 µM
- Km [29]: 23 µM
- Km [30, 53]: 36 µM
- Km [31]: 123 µM
- Km [32]: 61.4 µM
- Km [33]: 5.4 µM
- Km [34]: 26 µM
- Km [35]: 15 µM
- Km [36, 52]: 30 µM
- Km ([8]; role: cofactor, peptide substrate Tyr 06, read-out: ATP Km app): 96 µM
- Km [37]: 65.4 µM
- Km [38]: 22 µM
- Km [39]: 10 µM
- Km [9, 52]: 14 µM
- Km [40]: 14 µM
- Km [11, 53]: 129 µM
- Km [41]: 107 µM
- Km [42]: 5 µM
- Km [43]: 5.6 µM
- Km [44, 52]: 50 µM
- Km [13, 52]: 18.5 µM
- Km [45]: 2.8 µM
- Km [14, 52]: 66 µM
- Km [15, 53]: 5 µM
- Km [46]: 87 µM
- Km [16, 53]: 61.4 µM
- Km [47, 52]: 12 µM

Structure (SMILES): COc1cc2ncnc(Nc3cccc(Cl)c3)c2cc1OC [Tyrphostin AG1478]
- IC50 [17, 54]: 1650 nM
- IC50 [24, 54]: 631 nM
- IC50 ([30]; control inhibitor, Tyr 01, ATP 25 uM): 1800 nM
- IC50 [36, 51]: 731 nM
- IC50 [44, 54]: 1050 nM
- IC50 [47, 50]: 326 nM

Structure (SMILES): Cc1nc(Nc2ncc(C(=O)Nc3c(C)cccc3Cl)s2)cc(N2CCN(CCO)CC2)n1 [dasatinib]
- IC50 [48]: 139 nM

Structure (SMILES): C[C@@H]1CCN(C(=O)CC#N)C[C@@H]1N(C)c1ncnc2[nH]ccc12 [tofacitinib]
- JAK2 selectivity [4]: not selective inhibitors of JAK2 PK
